Assay results: ChEMBL document CHEMBL5113380, “Functionalized quinoxalinones as privileged structures with broad-ranging pharmacological activities” (Eur J Med Chem, 2022)
Values after ≈ are worked out from the molar mass of the structure shown. Blank lines part the entries; values can stand above or below the molecule they belong to.

Legend:
[1] = molecular target: T1, Glutamate receptor ionotropic AMPA (Homo sapiens, UniProt P42261+P42262+P42263+P48058); test: Displacement of [3H]AMPA from AMPA receptor (unknown origin); assay type: protein-complex assay
[2] = Displacement of [3H]glycine from AMPA receptor (unknown origin); assay type: protein-complex assay, Homo sapiens
[3] = molecular target: T1, Glutamate receptor ionotropic AMPA; test: Displacement of [3H]kainic acid from AMPA receptor (unknown origin); assay type: protein-complex assay
[4] = molecular target: Glutamate [NMDA] receptor; test: Displacement of [3H]DCKA from NMDA receptor (unknown origin); assay type: protein-complex assay, Homo sapiens
Pseudomonas aeruginosa = test: Antibacterial activity against Pseudomonas aeruginosa; assay type: functional
Staphylococcus aureus = test: Antibacterial activity against Staphylococcus aureus; assay type: functional
Bacillus cereus = test: Antibacterial activity against Bacillus cereus; assay type: functional
Escherichia coli = test: Antibacterial activity against Escherichia coli; assay type: functional
Candida albicans = test: Antifungal activity against Candida albicans; assay type: functional
Aspergillus niger = test: Antifungal activity against Aspergillus niger; assay type: functional
[5] = tested on: Trichophyton mentagrophytes; test: Antimicrobial activity against Trichophyton mentagrophytes; assay type: functional
[6] = molecular target: T1, Glutamate receptor ionotropic AMPA; test: Binding affinity to AMPA receptor (unknown origin); assay type: protein-complex assay
[7] = Inhibition of ALR2 (unknown origin); set-up: species or system Homo sapiens
[8] = Inhibition of ALR1 (unknown origin) relative to control; set-up: concentration or dose not given beside the values; conditions: Homo sapiens; concentration not given here
[9] = molecular target: Glutamate receptor ionotropic, kainate 2 (Homo sapiens, UniProt Q13002); test: Binding affinity to GluK2 receptor (unknown origin)
Glutamate receptor ionotropic, kainate 2, sequence (Q13002 whole entry): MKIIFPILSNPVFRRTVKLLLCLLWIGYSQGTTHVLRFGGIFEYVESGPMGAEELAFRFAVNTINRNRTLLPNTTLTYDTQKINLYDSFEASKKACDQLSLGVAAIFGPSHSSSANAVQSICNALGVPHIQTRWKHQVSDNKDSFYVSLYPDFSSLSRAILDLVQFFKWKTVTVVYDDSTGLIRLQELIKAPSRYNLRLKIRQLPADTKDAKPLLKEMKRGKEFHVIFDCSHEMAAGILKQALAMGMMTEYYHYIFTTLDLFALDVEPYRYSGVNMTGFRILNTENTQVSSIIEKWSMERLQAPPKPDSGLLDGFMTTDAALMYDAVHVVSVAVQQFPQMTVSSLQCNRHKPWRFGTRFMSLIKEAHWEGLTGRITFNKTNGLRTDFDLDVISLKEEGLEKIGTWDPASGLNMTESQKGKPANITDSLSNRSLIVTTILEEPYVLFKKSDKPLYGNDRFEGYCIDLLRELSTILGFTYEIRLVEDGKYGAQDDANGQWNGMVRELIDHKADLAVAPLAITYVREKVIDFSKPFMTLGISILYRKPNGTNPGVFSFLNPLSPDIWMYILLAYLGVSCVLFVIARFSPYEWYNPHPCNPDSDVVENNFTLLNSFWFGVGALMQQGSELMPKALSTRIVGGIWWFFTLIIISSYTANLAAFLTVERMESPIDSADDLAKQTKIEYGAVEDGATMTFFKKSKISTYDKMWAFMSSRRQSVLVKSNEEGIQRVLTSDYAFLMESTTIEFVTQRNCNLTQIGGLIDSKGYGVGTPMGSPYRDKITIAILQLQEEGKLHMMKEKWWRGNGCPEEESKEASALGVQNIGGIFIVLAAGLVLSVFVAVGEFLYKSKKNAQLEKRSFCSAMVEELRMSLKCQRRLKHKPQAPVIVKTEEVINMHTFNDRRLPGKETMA

[10] = molecular target: Glutamate receptor ionotropic, kainate 1 (Homo sapiens, UniProt P39086); test: Binding affinity to GluK1 receptor (unknown origin)
Glutamate receptor ionotropic, kainate 1, sequence (P39086 whole entry): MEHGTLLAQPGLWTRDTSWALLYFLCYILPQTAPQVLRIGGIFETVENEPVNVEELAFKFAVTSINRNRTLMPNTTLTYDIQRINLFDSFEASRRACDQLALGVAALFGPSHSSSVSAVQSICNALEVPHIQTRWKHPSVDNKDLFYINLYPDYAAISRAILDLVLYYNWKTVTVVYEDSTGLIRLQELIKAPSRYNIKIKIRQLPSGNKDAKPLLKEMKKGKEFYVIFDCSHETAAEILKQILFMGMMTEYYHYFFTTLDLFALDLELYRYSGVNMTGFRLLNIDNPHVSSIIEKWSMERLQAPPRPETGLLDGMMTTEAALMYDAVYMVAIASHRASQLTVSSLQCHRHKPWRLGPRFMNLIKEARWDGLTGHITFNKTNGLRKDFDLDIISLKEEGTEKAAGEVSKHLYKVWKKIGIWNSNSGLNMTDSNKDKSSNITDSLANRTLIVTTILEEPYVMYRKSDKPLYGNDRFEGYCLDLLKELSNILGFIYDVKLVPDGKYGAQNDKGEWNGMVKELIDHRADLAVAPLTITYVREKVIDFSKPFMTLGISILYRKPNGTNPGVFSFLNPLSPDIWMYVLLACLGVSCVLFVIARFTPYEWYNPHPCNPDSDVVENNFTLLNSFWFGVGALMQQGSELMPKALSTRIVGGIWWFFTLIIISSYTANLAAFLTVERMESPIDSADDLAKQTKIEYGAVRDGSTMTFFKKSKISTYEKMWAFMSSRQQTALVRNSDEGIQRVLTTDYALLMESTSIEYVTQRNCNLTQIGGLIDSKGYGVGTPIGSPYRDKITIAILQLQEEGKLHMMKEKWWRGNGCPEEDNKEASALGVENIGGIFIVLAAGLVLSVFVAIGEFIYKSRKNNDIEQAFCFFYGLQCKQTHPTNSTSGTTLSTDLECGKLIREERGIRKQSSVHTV

Glutamate receptor 2 = Glutamate receptor 2 (Homo sapiens, UniProt P42262); test: Binding affinity to GluA2 receptor (unknown origin)
Glutamate receptor 2, sequence (P42262 whole entry): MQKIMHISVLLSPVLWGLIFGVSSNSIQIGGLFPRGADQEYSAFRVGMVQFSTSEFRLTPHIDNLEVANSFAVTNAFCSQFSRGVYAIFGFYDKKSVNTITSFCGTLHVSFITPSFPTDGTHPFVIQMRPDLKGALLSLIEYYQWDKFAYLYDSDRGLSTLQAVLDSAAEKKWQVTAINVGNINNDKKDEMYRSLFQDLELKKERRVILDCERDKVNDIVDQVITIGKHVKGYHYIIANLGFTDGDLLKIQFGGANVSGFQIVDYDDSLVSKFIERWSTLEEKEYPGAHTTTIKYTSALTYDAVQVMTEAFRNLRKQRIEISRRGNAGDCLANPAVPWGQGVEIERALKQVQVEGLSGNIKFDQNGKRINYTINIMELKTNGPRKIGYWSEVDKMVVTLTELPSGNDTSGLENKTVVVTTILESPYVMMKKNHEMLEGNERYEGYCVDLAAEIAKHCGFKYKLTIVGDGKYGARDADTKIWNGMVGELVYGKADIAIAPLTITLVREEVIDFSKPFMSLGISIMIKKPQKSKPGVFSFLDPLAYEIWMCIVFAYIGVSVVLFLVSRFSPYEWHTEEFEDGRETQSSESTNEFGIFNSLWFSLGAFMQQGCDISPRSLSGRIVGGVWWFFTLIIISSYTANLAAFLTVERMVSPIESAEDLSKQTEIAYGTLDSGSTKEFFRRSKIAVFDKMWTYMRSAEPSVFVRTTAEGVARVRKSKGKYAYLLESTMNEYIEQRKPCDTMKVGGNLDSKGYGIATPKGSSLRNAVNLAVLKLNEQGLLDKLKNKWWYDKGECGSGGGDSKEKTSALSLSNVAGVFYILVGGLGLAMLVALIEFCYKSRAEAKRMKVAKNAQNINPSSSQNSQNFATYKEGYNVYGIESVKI

MCF7 = test: Antiproliferative activity against human MCF7 cells; assay type: functional, cell-based
HeLa = test: Antiproliferative activity against human HeLa cells; assay type: functional, cell-based
Klebsiella pneumoniae = test: Antibacterial activity against Klebsiella pneumoniae; assay type: functional
[11] = Antioxidant activity assessed as DPPH radical scavenging activity; assay type: functional; conditions: read-out: IC50

SMILES: CCOC(=O)c1nc2c(O)nc3cc([N+](=O)[O-])c(-n4ccc(C(=O)O)c4)cc3n2n1
Ki [1]: 0.068 µM

SMILES: Nc1cc(Cl)cc2[nH]c(=O)c3nc(C(=O)O)nn3c12
Ki [1]: 3.2 µM
Ki [2]: 0.16 µM
IC50 [3]: 34.1 µM

SMILES: CCCCCCCCCn1c(=O)c2c(-c3ccccc3)nc(-c3ccc[n+](Cc4ccccc4)c3)n2c2ccccc21.[Cl-]
MBC (Pseudomonas aeruginosa): > 500 µg/mL
MIC (Pseudomonas aeruginosa): > 500 µg/mL
MBC (Staphylococcus aureus): 50 µg/mL
MIC (Staphylococcus aureus): 1.95 µg/mL
MBC (Bacillus cereus): > 500 µg/mL
MIC (Bacillus cereus): 12.5 µg/mL
MBC (Escherichia coli): > 500 µg/mL
MIC (Escherichia coli): > 500 µg/mL
MBC (Candida albicans): 500 µg/mL
MIC (Candida albicans): 3.9 µg/mL
MBC (Aspergillus niger): > 500 µg/mL
MIC (Aspergillus niger): > 500 µg/mL
MBC [5]: > 500 µg/mL
MIC [5]: 500 µg/mL

SMILES: O=c1[nH]c2cc([N+](=O)[O-])c(-n3ccnc3)nc2n2cnnc12
Ki [1]: 0.19 µM

SMILES: O=C(O)c1ccn(-c2cc3c(cc2[N+](=O)[O-])nc(O)c2nc(C(=O)O)nn23)c1
Ki [1]: 0.019 µM

SMILES: O=C(O)c1nc2c(=O)[nH]c3cc(Cl)cc(-n4cnnc4)c3n2n1
Ki [1]: 0.4 µM
Ki [2]: 2.3 µM
IC50 [3]: 37 µM

SMILES: CCCCCCCCCn1c(=O)c2c(-c3ccccc3)nc(-c3ccc[n+](CCCCCCCCC)c3)n2c2ccccc21.[I-]
MBC (Pseudomonas aeruginosa): > 500 µg/mL
MIC (Pseudomonas aeruginosa): > 500 µg/mL
MBC (Staphylococcus aureus): 500 µg/mL
MIC (Staphylococcus aureus): 7.8 µg/mL
MBC (Bacillus cereus): > 500 µg/mL
MIC (Bacillus cereus): 7.8 µg/mL
MBC (Escherichia coli): > 500 µg/mL
MIC (Escherichia coli): > 500 µg/mL
MBC (Candida albicans): > 500 µg/mL
MIC (Candida albicans): > 500 µg/mL
MBC (Aspergillus niger): > 500 µg/mL
MIC (Aspergillus niger): > 500 µg/mL
MBC [5]: > 500 µg/mL
MIC [5]: > 500 µg/mL

SMILES: CCOC(=O)CN(C)Cc1c(CC)c([N+](=O)[O-])cc2nc(O)c(O)nc12
IC50 [1]: 1.59 µM
IC50 [2]: > 10 µM

SMILES: C[C@H]1Cc2cc(Br)cc3[nH]c(=O)c(=O)n(c23)C1CC(=O)O (stereo partly specified)
Ki [4]: 0.0033 µM

SMILES: N[C@@H](Cc1ccc2[nH]c(=O)c(=O)[nH]c2c1)C(=O)O
IC50 [1]: 203 µM
Ki [9]: 136 µM
Ki [10]: > 100 µM
Ki (Glutamate receptor 2): > 100 µM
IC50 [3]: > 300 µM

SMILES: O=[N+]([O-])c1cc2nc(O)c(O)nc2nc1-n1ccnc1
Ki [1]: 0.14 µM
Ki [2]: 10 µM

SMILES: CCc1nc2cc(C(F)(F)F)ccc2[nH]c1=O
MIC (Pseudomonas aeruginosa): 62.5 µg/mL (≈ 258 µM)

SMILES: CCCCCCCCCn1c(=O)c2c(-c3ccccc3)nc(-c3ccc[n+](CCCCCCCCC)c3)n2c2ccccc21.[Br-]
MBC (Pseudomonas aeruginosa): > 500 µg/mL
MIC (Pseudomonas aeruginosa): > 500 µg/mL
MBC (Staphylococcus aureus): 50 µg/mL
MIC (Staphylococcus aureus): 1.5 µg/mL
MBC (Bacillus cereus): 500 µg/mL
MIC (Bacillus cereus): 6.3 µg/mL
MBC (Escherichia coli): > 500 µg/mL
MIC (Escherichia coli): > 500 µg/mL
MBC (Candida albicans): 500 µg/mL
MIC (Candida albicans): 50 µg/mL
MBC (Aspergillus niger): > 500 µg/mL
MIC (Aspergillus niger): > 500 µg/mL
MBC [5]: > 500 µg/mL
MIC [5]: 500 µg/mL

SMILES: CCCCCCCCC[n+]1cccc(-c2nc(-c3ccccc3)c3c(=O)n(CCCCCC)c4ccccc4n23)c1.[Br-]
MBC (Pseudomonas aeruginosa): > 500 µg/mL
MIC (Pseudomonas aeruginosa): > 500 µg/mL
MBC (Staphylococcus aureus): 5 µg/mL
MIC (Staphylococcus aureus): 0.97 µg/mL
MBC (Bacillus cereus): 50 µg/mL
MIC (Bacillus cereus): 0.97 µg/mL
MBC (Escherichia coli): 500 µg/mL
MIC (Escherichia coli): 500 µg/mL
MBC (Candida albicans): 50 µg/mL
MIC (Candida albicans): 0.97 µg/mL
MBC (Aspergillus niger): > 500 µg/mL
MIC (Aspergillus niger): > 500 µg/mL
MBC [5]: 250 µg/mL
MIC [5]: 250 µg/mL

Now from value to molecule, other results behind:

Ki [4]: 0.00096 µM
SMILES: O=C(C[C@@H]1CCc2cc(Br)cc3[nH]c(=O)c(=O)n1c23)Nc1ccccc1

Ki [6]: 0.016 µM
SMILES: O=C(Nc1ccc(C(=O)O)cc1)OCc1cn(-c2cc3nc(C(=O)O)c(O)nc3cc2C(F)(F)F)cn1

IC50 [7]: 1.54 µM
SMILES: O=c1[nH]c2c([N+](=O)[O-])c(Cl)c(Cl)c([N+](=O)[O-])c2nc1Oc1ccccc1

MIC (Pseudomonas aeruginosa): 250 µg/mL (≈ 1060 µM)
SMILES: CCOC(=O)c1nc2cc(F)ccc2[nH]c1=O

IC50 [7]: 0.0114 µM
inhibition [8]: 30.7%
SMILES: O=C(O)Cn1c(=O)c(Oc2ccc(Br)cc2)nc2ccc(F)cc21

MIC (Escherichia coli): 125 µg/mL (≈ 557 µM)
SMILES: O=C(O)c1nc2ccc(Cl)cc2[nH]c1=O

IC50 (MCF7): 2.61 µM
IC50 (HeLa): 8.92 µM
SMILES: COc1ccc(/C(=C(\C#N)C(=O)NN)n2c(=O)c(O)nc3ccccc32)cc1

IC50 [7]: 0.00644 µM
inhibition [8]: 58.7%
SMILES: O=C(O)Cn1c(=O)c(Oc2ccc(Br)cc2F)nc2ccc(F)cc21

IC50 [11]: 28.9 µM
SMILES: CSCCc1nc2ccc(N3C(=O)CSC3c3ccc([N+](=O)[O-])cc3)cc2[nH]c1=O (stereo unspecified)
MBC (Candida albicans): 353 µM
MBC (Klebsiella pneumoniae): 706 µM (≈ 313 µg/mL)

Ki [4]: 0.0031 µM
SMILES: C[C@H]1Cc2cc(Cl)cc3[nH]c(=O)c(=O)n(c23)C1CC(=O)Nc1ccccc1 (stereo partly specified)
